We go through 23 compounds from patent publication US20250066341A1 (CHIESI FARMACEUTICI S.P.A., priority 2021, published 2025).

Each structure is given as a SMILES string.

The target in the experiment is T1, human recombinant LPA1 expressed in CHO cells (Homo sapiens, UniProt Q92633).
T1 construct: expressed in transfected cells; host or cells: CHO cells (CHO-hLPA1 cell line)
T1 sequence (Q92633 whole entry): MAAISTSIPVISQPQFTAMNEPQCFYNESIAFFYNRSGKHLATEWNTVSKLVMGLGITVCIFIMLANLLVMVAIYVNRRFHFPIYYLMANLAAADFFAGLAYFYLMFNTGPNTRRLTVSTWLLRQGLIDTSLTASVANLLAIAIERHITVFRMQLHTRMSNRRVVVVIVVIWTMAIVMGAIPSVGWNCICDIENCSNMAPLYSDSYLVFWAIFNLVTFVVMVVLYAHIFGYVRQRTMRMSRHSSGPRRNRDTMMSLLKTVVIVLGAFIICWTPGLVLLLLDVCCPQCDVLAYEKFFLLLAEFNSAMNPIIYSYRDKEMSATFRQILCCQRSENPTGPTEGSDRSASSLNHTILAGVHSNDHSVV
Description: FLIPR calcium mobilization assay, LPA1 antagonism in CHO-hLPA1 cells. The conditions noted are these: inhibition of LPA EC80 Ca2+ response, 30 min pre-incubation, expressed as range of activity. It counts as cell-based. As for the experimental part: The effectiveness of compounds of the present invention as LPA1 antagonist can be determined at the human recombinant LPA1 expressed in CHO cells, using a FLIPR assay in 384 well format.
CHO-hLPA1 cell lines are cultured in a humidified incubator at 5% C02 in DMEM/F-12 (1:1) MIXTURE with 2 mM Glutamax, supplemented with 10% of Foetal Bovine Serum, 1 mM Sodium Pyruvate, 11 mM Hepes and 1× Penicillin/Streptomycin. […] Serial dilutions (1:3 or 1:4, 11 points CRC) of compounds are performed in 100% DMSO at 200× the final concentration. […] The final concentration of DMSO in the assay will be 0.5% in each well. Medium is removed by aspiration and cells are then incubated with 30 μl of a loading solution containing 5 μM of the cytoplasmic Ca2+ indicator Cal-520 AM in Assay Buffer containing 2.5 mM probenecid for 30 min at 37° C. incubator (cell loading). The loaded cell plates are transferred into the FLIPR instrument and calcium responses are monitored during the on-line addition protocols. For testing of compounds, after the cell loading, 10 μl/well of 4× antagonists' solution was added onto the cells. After 30 min pre-incubation (at 37° C.), 10 μl/well of 5× concentrated LPA EC80 was added and Ca2+ mobilization responses was followed during the on-line addition protocol. Intracellular peak fluorescence values subtracted by baseline fluorescence are exported and analysed to determine IC50 values, respectively. The calcium response is expressed as percentage of the maximal inhibition of the EC80 agonist response.
The raw data (peak height expressed as relative fluorescence units) are normalized and transformed into “percent of inhibition”. Curve fitting and pIC50 (−LogIC50) estimations are carried out using a four-parameter logistic model using XLfit Software.
On the technique in general: A change in cytosolic calcium serves as a functional read-out for many receptors and channels.
Usually IC50 stands for the midpoint of a concentration-inhibition curve. Take `Cc1nc(-c2onc(C)c2CNc2nccc(-c3ccco3)n2)ccc1NC(=O)[C@H]1CCCC[C@@H]1C(=O)O` [Compound 41, (1S,2S)-2-((6-(4-(((4-(furan-2-yl)pyrimidin-2-yl)amino)methyl)-3-methylisoxazol-5-yl)-2-methylpyridin-3-yl)carbamoyl)cyclohexane-1-carboxylic acid]: the 50% inhibitory concentration (IC50) was less than 50 nM.

For the compound `Cc1nc(-c2nnn(C)c2CNC(=O)O[C@H](C)c2ccccc2Cl)ccc1NC(=O)[C@H]1CCCC[C@@H]1C(=O)O` [Compound 42, (1S,2S)-2-((6-(5-(((((R)-1-(2-chlorophenyl)ethoxy)carbonyl)amino)methyl)-1-methyl-1H-1,2,3-triazol-4-yl)-2-methylpyridin-3-yl)carbamoyl)cyclohexane-1-carboxylic acid], the IC50 was 250 to 600 nM.

With `Cc1nc(-c2nnn(C)c2CNc2nccc(C3CCCCC3)n2)ccc1NC(=O)[C@H]1CCCC[C@@H]1C(=O)O` [Compound 44, (1S,2S)-2-((6-(5-(((4-cyclohexylpyrimidin-2-yl)amino)methyl)-1-methyl-1H-1,2,3-triazol-4-yl)-2-methylpyridin-3-yl)carbamoyl)cyclohexane-1-carboxylic acid], the IC50 is less than 50 nM.

As to `Cc1nc(-c2onc(C)c2COC(=O)N(C)C2CCCC2)ccc1NC(=O)[C@H]1CCCC[C@@H]1C(=O)O` [Compound 45, (1S,2S)-2-((6-(4-(((cyclopentyl(methyl)carbamoyl)oxy)methyl)-3-methylisoxazol-5-yl)-2-methylpyridin-3-yl)carbamoyl)cyclohexane-1-carboxylic acid], the IC50 lay within 50 to 250 nM.

As to `Cc1nc(-c2onc(C)c2Nc2cncc(C3CCCC3)n2)ccc1OC[C@H]1CCCC[C@@H]1C(=O)O` [Compound 46, (1S,2S)-2-(((6-(4-((6-cyclopentylpyrazin-2-yl)amino)-3-methylisoxazol-5-yl)-2-methylpyridin-3-yl)oxy)methyl)cyclohexane-1-carboxylic acid], the IC50 was less than 50 nM.

On to `CCOc1cncc(Nc2c(C)noc2-c2ccc(OC[C@H]3CCCC[C@@H]3C(=O)O)cn2)n1` [Compound 47, (1S,2S)-2-(((6-(4-((6-ethoxypyrazin-2-yl)amino)-3-methylisoxazol-5-yl)pyridin-3-yl)oxy)methyl)cyclohexane-1-carboxylic acid], for which the IC50 is less than 50 nM.

As to `Cc1noc(-c2ccc(OC[C@H]3CCCC[C@@H]3C(=O)O)cn2)c1Nc1cncc(OC(C)C)n1` [Compound 48, (1S,2S)-2-(((6-(4-((6-isopropoxypyrazin-2-yl)amino)-3-methylisoxazol-5-yl)pyridin-3-yl)oxy)methyl)cyclohexane-1-carboxylic acid], the IC50 is less than 50 nM.

For `Cc1noc(-c2ccc(OC[C@H]3CCCC[C@@H]3C(=O)O)cn2)c1Nc1cncc(OCC(F)(F)F)n1` [Compound 49, (1S,2S)-2-(((6-(3-methyl-4-((6-(2,2,2-trifluoroethoxy)pyrazin-2-yl)amino)isoxazol-5-yl)pyridin-3-yl)oxy)methyl)cyclohexane-1-carboxylic acid], the half-inhibitory concentration (IC50) was less than 50 nM.

Take `Cc1noc(-c2ccc(OC[C@H]3CCCC[C@@H]3C(=O)O)cn2)c1Nc1cncc(OCC(C)C)n1` [Compound 50, (1S,2S)-2-(((6-(4-((6-isobutoxypyrazin-2-yl)amino)-3-methylisoxazol-5-yl)pyridin-3-yl)oxy)methyl)cyclohexane-1-carboxylic acid]: the concentration for half-maximal inhibition (IC50) was less than 50 nM.

With `CCOc1cncc(Nc2c(C)noc2-c2ccc(OC[C@H]3CCCC[C@@H]3C(=O)O)c(C)n2)n1` [Compound 51, (1S,2S)-2-(((6-(4-((6-ethoxypyrazin-2-yl)amino)-3-methylisoxazol-5-yl)-2-methylpyridin-3-yl)oxy)methyl)cyclohexane-1-carboxylic acid], the half-inhibitory concentration (IC50) was less than 50 nM.

On to `Cc1nc(-c2onc(C)c2Nc2cncc(OC(C)C)n2)ccc1OC[C@H]1CCCC[C@@H]1C(=O)O` [Compound 52, (1S,2S)-2-(((6-(4-((6-isopropoxypyrazin-2-yl)amino)-3-methylisoxazol-5-yl)-2-methylpyridin-3-yl)oxy)methyl)cyclohexane-1-carboxylic acid], for which the concentration for half-maximal inhibition (IC50) was less than 50 nM.

For `COc1cncc(Nc2c(C)noc2-c2ccc(OC[C@H]3CCCC[C@@H]3C(=O)O)c(C)n2)n1` [Compound 53, (1S,2S)-2-(((6-(4-((6-methoxypyrazin-2-yl)amino)-3-methylisoxazol-5-yl)-2-methylpyridin-3-yl)oxy)methyl)cyclohexane-1-carboxylic acid], the concentration for half-maximal inhibition (IC50) fell in the range of 50 to 250 nM.

As to `CCCc1cncc(Nc2c(C)noc2-c2ccc(OC[C@H]3CCCC[C@@H]3C(=O)O)c(C)n2)n1` [Compound 54, (1S,2S)-2-(((2-methyl-6-(3-methyl-4-((6-propylpyrazin-2-yl)amino)isoxazol-5-yl)pyridin-3-yl)oxy)methyl)cyclohexane-1-carboxylic acid], the IC50 was less than 50 nM.

Take `Cc1nc(-c2onc(C)c2NS(=O)(=O)CCOc2ccc(F)cc2)ccc1OC[C@H]1CCCC[C@@H]1C(=O)O` [Compound 55, (1S,2S)-2-(((6-(4-((2-(4-fluorophenoxy)ethyl)sulfonamido)-3-methylisoxazol-5-yl)-2-methylpyridin-3-yl)oxy)methyl)cyclohexane-1-carboxylic acid]: the concentration for half-maximal inhibition (IC50) is less than 50 nM.

Turning to `Cc1nc(-c2onc(C)c2NS(=O)(=O)c2ccccc2)ccc1OC[C@H]1CCCC[C@@H]1C(=O)O` [Compound 56, (1S,2S)-2-(((2-methyl-6-(3-methyl-4-(phenylsulfonamido)isoxazol-5-yl)pyridin-3-yl)oxy)methyl)cyclohexane-1-carboxylic acid], the half-inhibitory concentration (IC50) lay within 250 to 600 nM.

With `Cc1nc(-c2onc(C)c2NS(=O)(=O)CCc2ccccc2)ccc1OC[C@H]1CCCC[C@@H]1C(=O)O` [Compound 57, (1S,2S)-2-(((2-methyl-6-(3-methyl-4-((2-phenylethyl)sulfonamido)isoxazol-5-yl)pyridin-3-yl)oxy)methyl)cyclohexane-1-carboxylic acid], the half-inhibitory concentration (IC50) is less than 50 nM.

As to `Cc1nc(-c2cnn(C)c2NC(=O)O[C@H](C)c2ccccc2Cl)ccc1OC[C@H]1CCCC[C@@H]1C(=O)O` [Compound 58, (1S,2S)-2-(((6-(5-((((R)-1-(2-chlorophenyl)ethoxy)carbonyl)amino)-1-methyl-1H-pyrazol-4-yl)-2-methylpyridin-3-yl)oxy)methyl)cyclohexane-1-carboxylic acid], the IC50 is less than 50 nM.

Consider `Cc1noc(-c2ccc(OC[C@H]3CCCC[C@@H]3C(=O)O)cc2)c1NC(=O)O[C@H](C)c1cccnc1` [Compound 59, (1S,2S)-2-((4-(3-methyl-4-((((R)-1-(pyridin-3-yl)ethoxy)carbonyl)amino)isoxazol-5-yl)phenoxy)methyl)cyclohexane-1-carboxylic acid], for which the concentration for half-maximal inhibition (IC50) was 50 to 250 nM.

In the case of `Cc1nc(-c2cnn(C)c2CNc2nccc(-c3ccccc3)n2)ccc1OC[C@H]1CCCC[C@@H]1C(=O)O` [Compound 61, (1S,2S)-2-(((2-methyl-6-(1-methyl-5-(((4-phenylpyrimidin-2-yl)amino)methyl)-1H-pyrazol-4-yl)pyridin-3-yl)oxy)methyl)cyclohexane-1-carboxylic acid], the half-maximal inhibitory concentration (IC50) is less than 50 nM.

In the case of `Cc1nc(-c2nnn(C)c2CNC(=O)OCc2ccccc2)ccc1OC[C@H]1CCCC[C@@H]1C(=O)O` [Compound 62, (1S,2S)-2-(((6-(5-((((benzyloxy)carbonyl)amino)methyl)-1-methyl-1H-1,2,3-triazol-4-yl)-2-methylpyridin-3-yl)oxy)methyl)cyclohexane-1-carboxylic acid], the IC50 is less than 50 nM.

As to `Cc1nc(-c2nnn(C)c2CNC(=O)O[C@H](C)c2cccnc2Cl)ccc1OC[C@H]1CCCC[C@@H]1C(=O)O` [Compound 63, (1S,2S)-2-(((6-(5-(((((R)-1-(2-chloropyridin-3-yl)ethoxy)carbonyl)amino)methyl)-1-methyl-1H-1,2,3-triazol-4-yl)-2-methylpyridin-3-yl)oxy)methyl)cyclohexane-1-carboxylic acid], the concentration for half-maximal inhibition (IC50) was less than 50 nM.

As to `Cc1nc(-c2nnn(C)c2CNC(=O)OCc2cccnc2Cl)ccc1OC[C@H]1CCCC[C@@H]1C(=O)O` [Compound 64, (1S,2S)-2-(((6-(5-(((((2-chloropyridin-3-yl)methoxy)carbonyl)amino)methyl)-1-methyl-1H-1,2,3-triazol-4-yl)-2-methylpyridin-3-yl)oxy)methyl)cyclohexane-1-carboxylic acid], the half-inhibitory concentration (IC50) was 50 to 250 nM.

On to `Cc1nc(-c2nnn(C)c2CNc2nccc(-c3cnccn3)n2)ccc1OC[C@H]1CCCC[C@@H]1C(=O)O` [Compound 65, (1S,2S)-2-(((2-methyl-6-(1-methyl-5-(((4-(pyrazin-2-yl)pyrimidin-2-yl)amino)methyl)-1H-1,2,3-triazol-4-yl)pyridin-3-yl)oxy)methyl)cyclohexane-1-carboxylic acid], for which the half-maximal inhibitory concentration (IC50) was less than 50 nM.
